Results taken from publication PMC6273089, “Secondary Metabolites Produced by an Endophytic Fungus Pestalotiopsis sydowiana and Their 20S Proteasome Inhibitory Activities” (Molecules, 2016).

Biological target: human erythrocyte 20S proteasome (Homo sapiens, UniProt P28074)
Assay: 20S proteasome inhibition assay (chymotrypsin-like activity, Suc-LLVY-AMC substrate)
Details: not given

Row | IC50 | Compound
1 | 30.5 ± 1.5 µM | COc1c(/C=C/C(C)(C)OC)ccc2c1C(=O)OCc1cc(C)cc(O)c1O2 [Compound 1, 3′-O-methyldehydroisopenicillide]
2 | 18.5 ± 4.2 µM | C=C(C)[C@@H](O)[C@H](O)c1ccc2c(c1OC)C(=O)OCc1cc(C)cc(O)c1O2 [Compound 2, pestalotiollide B]
3 | 12.4 ± 1.1 µM | C=C(C)[C@@H](O)[C@@H](O)c1ccc2c(c1OC)C(=O)OCc1cc(C)cc(O)c1O2 [Compound 3, pestalotiollide A]
4 | > 100 µM | COc1c(/C=C/C(C)(C)O)ccc2c1C(=O)OCc1cc(C)cc(O)c1O2 [Compound 4, dehydroisopenicillide]
5 | 20.5 ± 2.3 µM | COC1=CC(=O)OC(CO)C1 (centres unmarked) [Compound 5, 6-hydroxymethyl-4-methoxy-5,6-dihydro-2H-pyran-2-one]
6 | > 100 µM | COc1cc(C(C)(O)C(C)O)oc(=O)c1 (centres unmarked) [Compound 6, pestalotiopyrone D]
7 | > 100 µM | COc1cc(C(C)C(C)O)oc(=O)c1 (centres unmarked) [Compound 7, pestalotiopyrone E]
8 | 1.2 ± 0.3 µM | C/C=C(/C)c1cc(OC)cc(=O)o1 [Compound 8, pestalotiopyrone G]
9 | 8.9 ± 1.5 µM | CCC[C@@H](O)[C@H](O)C1CC(OC)=CC(=O)O1 (some centres unmarked) [Compound 9, LL-P880b]
10 | 7.9 ± 1.8 µM | CCC(O)C[C@H](O)C1CC(OC)=CC(=O)O1 (some centres unmarked) [Compound 10, photipyrone B]

Same assay, conditions: chymotrypsin-like activity

Row | 20S proteasome inhibitory activity (in words) | Compound
11 | strong activity | C/C=C(/C)c1cc(OC)cc(=O)o1 [Compound 8, pestalotiopyrone G]
